Data taken from patent publication US20210238138A1, “Method for improving nucleation of crystals from solution” (Université Libre de Bruxelles, priority 2018, published 2021).

Tests used:
Format in all cases: physicochemical
[1] = Maturing of acetylsalicylic acid crystals (growth treatment, early filtration); conditions: 3 m tubing, Tc 15° C., σ 4.5, 30 mL/min; for Sphere Equivalent Diameter: thickness set to ⅕ of width
Protocol: Obtaining different crystal sizes as end-product then depends on the time that is given to the crystals to mature further. […] To further proof the effect of early filtration (see table 10), the liquor of tests 43 and 44 were also directly filtered after exiting the tubing (test 49 and 50, respectively); the product of test 44 was also collected for 2 minutes and filtered afterwards (test 51).

[2] = Transient time and distance of aspirin solution in tubing; conditions: 200 mg/mL in ethanol/water 50/50 vol %, start 60° C., water bath 10° C.; for Transient distance: flow rate 30 mL/min
Text: Two different capillaries of dimensions 1000 and 1500 μm inner diameter ID were used for a test using the setup of FIG. 1 in which the evolution of temperature inside the tubing was experimentally investigated at different distances.
The transition time is defined as the time necessary to reach crystallization conditions in the used setup (i.e. time for a fluid particle flowing in the liquid to get from undersaturated conditions to nucleation conditions). Therefore, this time is at a given concentration dominated by the difference in temperature between the solubility temperature and the metastable zone width or MSZW. At temperatures below this MSZW the solute in solution starts to nucleate spontaneously. […] (both measured). The transition time is then defined as the time needed to overcome this 20° C. difference in temperature.
As a consequence, for a 1500 μm inner diameter tubing, the total tubing length necessary to conduct crystallization is a multitude of the corresponding transient distance, making any workable application impossible: about 3.5 m are necessary to overcome the solubility time; 3.5 m to reach transient distance and approximately the 4 times the transient distance is necessary to increase sufficiently the induction time. The transient distance is defined as the distance the liquid is transferred during the transient time at a given flow rate.

[3] = Maturing of acetylsalicylic acid crystals (growth treatment, early filtration); conditions: 3 m tubing
[4] = test 49: 200 mg/mL ethanol/water 50/50 vol %, restriction 1 of 250 μm ID, filtration At exit
[5] = test 50: 200 mg/mL ethanol/water 50/50 vol %, restriction 2 of 250 μm ID, filtration At exit
[6] = test 51: 200 mg/mL ethanol/water 50/50 vol %, restriction 2 of 250 μm ID, filtration After 120 s
[7] = test 45: 200 mg/mL ethanol/water 50/50 vol %, Tc 10° C., σ 6.7, 30 mL/min, no restrictions, Growth to equilibrium in tubing
[8] = test 46: 200 mg/mL ethanol/water 50/50 vol %, Tc 10° C., σ 6.7, 30 mL/min, no restrictions, filtration on 16 μm glass filter after 60 s
[9] = test 47: 200 mg/mL ethanol/water 50/50 vol %, Tc 10° C., σ 6.7, 30 mL/min, no restrictions, filtration on 16 μm glass filter after 90 s
[10] = test 48: 200 mg/mL ethanol/water 50/50 vol %, Tc 10° C., σ 6.7, 30 mL/min, no restrictions, Addition to saturated solution

Which results are given for CC(=O)Oc1ccccc1C(=O)O [Acetylsalicylic acid, acetylsalicylic acid]?
Crystal length [1, 4]: 104 ± 55 μm; Crystal width [1, 4]: 28 ± 13 μm; Sphere Equivalent Diameter [1, 4]: 32 ± 7 μm; Crystal width [1, 5]: 23 ± 17 μm; Sphere Equivalent Diameter [1, 5]: 24 ± 8 μm; Crystal length [1, 6]: 155 ± 91 μm; Crystal width [1, 6]: 36 ± 17 μm; Transient time ([2]; tubing 1000 μm): 1 000 ms; Transient distance ([2]; tubing 1000 μm): 1.3 m; Transient time ([2]; tubing 1500 μm): 5 700 ms; Transient distance ([2]; tubing 1500 μm): 3.5 m; Crystal length [3, 7]: 500 ± 230 μm; Crystal width [3, 7]: 69 ± 27 μm; Crystal length [3, 8]: 359 ± 190 μm; Crystal width [3, 8]: 66 ± 35 μm; Crystal length [3, 9]: 646 ± 391 μm; Crystal width [3, 9]: 38 ± 23 μm; Crystal length [3, 10]: 172 ± 66 μm; Crystal width [3, 10]: 38 ± 13 μm; Crystal length ([3]; test 50: 200 mg/mL ethanol/water 50/50 vol %, Tc 15° C., σ 4.5, 30 mL/min, restriction 2 of 250 μm ID, filtration At exit): 63 ± 36 μm; Sphere Equivalent Diameter ([3]; test 51: 200 mg/mL ethanol/water 50/50 vol %, Tc 15° C., σ 4.5, 30 mL/min, restriction 2 of 250 μm ID, filtration After 120 s, thickness set to ⅕ of width): 42 ± 11 μm
